# Legend:
# [1] = compound: T1, CN(C)C(=O)c1cc2cnc(Nc3ccc(N4CCNCC4)cn3)nc2n1C1CCCC1 [LEE011/Ribociclib]
# [2] = compound: Cc1nn(C)c(COc2ccc(N3CCN(S(=O)(=O)N(C)C)CC3)cc2)c1-c1cccc2c(CCCOc3cccc4ccccc34)c(C(=O)O)n(CCN3CCOCC3)c12
# [3] = compound: CCc1cnn2c(NCc3ccc[n+]([O-])c3)cc(N3CCCC[C@H]3CCO)nc12
# [4] = compound: COc1cccc2c1C(=O)c1c(O)c3c(c(O)c1C2=O)C[C@@](O)(C(=O)CO)C[C@@H]3O[C@H]1C[C@H](N)[C@H](O)[C@H](C)O1 [Doxorubicin]
# [5] = compound: CS(=O)(=O)N1CCN(Cc2cc3nc(-c4cccc5[nH]ncc45)nc(N4CCOCC4)c3s2)CC1 [Pictilisib/GDC0941]
# [6] = compound: Cc1cc(Nc2ncc(Cl)c(Nc3ccccc3S(=O)(=O)C(C)C)n2)c(OC(C)C)cc1C1CCNCC1 [Ceritinib/LDK378]
# [7] = compound: CN(C)C/C=C/C(=O)Nc1ccc(C(=O)Nc2cccc(Nc3ncc(Cl)c(-c4c[nH]c5ccccc45)n3)c2)cc1 [THZ1]; assay: increase in dead-cell fraction, 72 h; higher = more death;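 also: breast cancer cell lines in 384-well plates, stained with Hoechst plus LIVE/DEAD far red dye and imaged, cells above an LDR intensity threshold counted dead, Hoechst-negative corpses included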
# [8] = compound: CC(=O)c1c(C)c2cnc(Nc3ccc(N4CCN(CCOCCOCCOCCNC(=O)COc5cccc6c5C(=O)N(C5CCC(=O)NC5=O)C6=O)CC4)cn3)nc2n(C2CCCC2)c1=O [BSJ-03-123]; assay: as above
# [9] = compound: CCN1CCN(Cc2ccc(Nc3ncc(F)c(-c4cc(F)c5nc(C)n(C(C)C)c5c4)n3)nc2)CC1; assay: as above
# [10] = compound: T1, LEE011/Ribociclib; assay: as above
# [11] = compound: CC(=O)c1c(C)c2cnc(Nc3ccc(N4CCNCC4)cn3)nc2n(C2CCCC2)c1=O; assay: as above
# [12] = compound: CCOc1cc2ncc(C#N)c(Nc3ccc(OCc4ccccn4)c(Cl)c3)c2cc1NC(=O)/C=C/CN(C)C [Neratinib/HKI272]; assay: as above
# [13] = compound: CCc1cnn2c(NCc3ccc[n+]([O-])c3)cc(N3CCCC[C@H]3CCO)nc12; assay: as above
# [14] = compound: C=CC(=O)Nc1ccc(C(=O)Nc2[nH]nc3c2CN(C(=O)N[C@H](CN(C)C)c2ccccc2)C3(C)C)cc1 [YKL-5-124]; assay: as above
# [15] = compound: CN(C)C/C=C/C(=O)Nc1ccc(C(=O)N2CCC[C@@H](Nc3ncc(Cl)c(-c4c[nH]c5ccccc45)n3)C2)cc1 [THZ531]; assay: as above
# [16] = compound: CN1CC[C@H](c2c(O)cc(O)c3c(=O)cc(-c4ccccc4Cl)oc23)[C@H](O)C1 [Flavopiridol]; assay: as above
# 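For GR50, 72 h in this document: breast cancer and non-malignant breast epithelial cell lines, Deep Dye Drop or Dye Drop imaging, nine half-log doses, GR normalized to time-zero plates and DMSO-only controls.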
cell line,measurement,setting,value
SUM1315,"GR50, 72 h",[1],2.83 µM
same,"GR50, 72 h",[2],> 10 µM
same,"GR50, 72 h",[3],0.0109 µM
same,"GR50, 72 h",[4],0.0182 µM
same,"GR50, 72 h",[5],0.511 µM
same,"GR50, 72 h",[6],0.669 µM
same,increase in dead-cell fraction,[7]; 0.0001 µM,0.0131
same,increase in dead-cell fraction,[7]; 0.0003162 µM,-0.0262
same,increase in dead-cell fraction,[7]; 0.001 µM,-0.0208
same,increase in dead-cell fraction,[7]; 0.003162 µM,0.0035
same,increase in dead-cell fraction,[7]; 0.01 µM,-0.0115
same,increase in dead-cell fraction,[7]; 0.03162 µM,-0.0232
same,increase in dead-cell fraction,[7]; 0.1 µM,-0.0483
same,increase in dead-cell fraction,[7]; 0.3162 µM,0.0421
same,increase in dead-cell fraction,[7]; 1 µM,0.61
same,increase in dead-cell fraction,[8]; 0.001 µM,-0.0091
same,increase in dead-cell fraction,[8]; 0.003162 µM,0.0246
same,increase in dead-cell fraction,[8]; 0.01 µM,0.0376
same,increase in dead-cell fraction,[8]; 0.03162 µM,0.0297
same,increase in dead-cell fraction,[8]; 0.1 µM,0.0105
same,increase in dead-cell fraction,[8]; 0.3162 µM,-0.0013
same,increase in dead-cell fraction,[8]; 1 µM,0.033
same,increase in dead-cell fraction,[8]; 3.162 µM,0.03
same,increase in dead-cell fraction,[8]; 10 µM,0.0923
same,increase in dead-cell fraction,[9]; 0.001 µM,0.0105
same,increase in dead-cell fraction,[9]; 0.003162 µM,0.0024
same,increase in dead-cell fraction,[9]; 0.01 µM,-0.0018
same,increase in dead-cell fraction,[9]; 0.03162 µM,0.0186
same,increase in dead-cell fraction,[9]; 0.1 µM,0.0167
same,increase in dead-cell fraction,[9]; 0.3162 µM,0.025
same,increase in dead-cell fraction,[9]; 1 µM,0.0225
same,increase in dead-cell fraction,[9]; 3.162 µM,0.0197
same,increase in dead-cell fraction,[9]; 10 µM,0.132
same,increase in dead-cell fraction,[10]; 0.001 µM,0.0236
same,increase in dead-cell fraction,[10]; 0.003162 µM,0.0101
same,increase in dead-cell fraction,[10]; 0.01 µM,0.0448
same,increase in dead-cell fraction,[10]; 0.03162 µM,0.0191
same,increase in dead-cell fraction,[10]; 0.1 µM,0.054
same,increase in dead-cell fraction,[10]; 0.3162 µM,0.071
same,increase in dead-cell fraction,[10]; 1 µM,0.0703
same,increase in dead-cell fraction,[10]; 3.162 µM,0.0888
same,increase in dead-cell fraction,[10]; 10 µM,0.114
same,increase in dead-cell fraction,[11]; 0.0003162 µM,-0.0007
same,increase in dead-cell fraction,[11]; 0.001 µM,-0.0011
same,increase in dead-cell fraction,[11]; 0.003162 µM,-0.0024
same,increase in dead-cell fraction,[11]; 0.01 µM,0.0003
same,increase in dead-cell fraction,[11]; 0.03162 µM,0.0166
same,increase in dead-cell fraction,[11]; 0.1 µM,0.0188
same,increase in dead-cell fraction,[11]; 0.3162 µM,0.0295
same,increase in dead-cell fraction,[11]; 1 µM,0.0213
same,increase in dead-cell fraction,[11]; 3.162 µM,0.0282
same,increase in dead-cell fraction,[12]; 0.0003162 µM,0.0036
same,increase in dead-cell fraction,[12]; 0.001 µM,0.0058
same,increase in dead-cell fraction,[12]; 0.003162 µM,0.0067
same,increase in dead-cell fraction,[12]; 0.01 µM,0.0047
same,increase in dead-cell fraction,[12]; 0.03162 µM,0.0181
same,increase in dead-cell fraction,[12]; 0.1 µM,0.0402
same,increase in dead-cell fraction,[12]; 0.3162 µM,0.0578
same,increase in dead-cell fraction,[12]; 1 µM,0.0857
same,increase in dead-cell fraction,[12]; 3.162 µM,0.0855
same,increase in dead-cell fraction,[13]; 0.0001 µM,-0.0013
same,increase in dead-cell fraction,[13]; 0.0003162 µM,-0.0006
same,increase in dead-cell fraction,[13]; 0.001 µM,0.0062
same,increase in dead-cell fraction,[13]; 0.003162 µM,0.0147
same,increase in dead-cell fraction,[13]; 0.01 µM,0.0232
same,increase in dead-cell fraction,[13]; 0.03162 µM,0.578
same,increase in dead-cell fraction,[13]; 0.1 µM,0.63
same,increase in dead-cell fraction,[13]; 0.3162 µM,0.64
same,increase in dead-cell fraction,[13]; 1 µM,0.599
same,increase in dead-cell fraction,[14]; 0.001 µM,0.0195
same,increase in dead-cell fraction,[14]; 0.003162 µM,0.0396
same,increase in dead-cell fraction,[14]; 0.01 µM,0.0503
same,increase in dead-cell fraction,[14]; 0.03162 µM,0.0215
same,increase in dead-cell fraction,[14]; 0.1 µM,0.0766
same,increase in dead-cell fraction,[14]; 0.3162 µM,0.0731
same,increase in dead-cell fraction,[14]; 1 µM,0.171
same,increase in dead-cell fraction,[14]; 3.162 µM,0.134
same,increase in dead-cell fraction,[14]; 10 µM,0.364
same,increase in dead-cell fraction,[15]; 0.0001 µM,0.0119
same,increase in dead-cell fraction,[15]; 0.0003162 µM,-0.0037
same,increase in dead-cell fraction,[15]; 0.001 µM,-0.0061
same,increase in dead-cell fraction,[15]; 0.003162 µM,0.0067
same,increase in dead-cell fraction,[15]; 0.01 µM,0.001
same,increase in dead-cell fraction,[15]; 0.03162 µM,-0.0178
same,increase in dead-cell fraction,[15]; 0.1 µM,-0.0022
same,increase in dead-cell fraction,[15]; 0.3162 µM,0.0155
same,increase in dead-cell fraction,[15]; 1 µM,0.204
same,increase in dead-cell fraction,[16]; 0.0001 µM,0.0039
same,increase in dead-cell fraction,[16]; 0.0003162 µM,-0.0083
same,increase in dead-cell fraction,[16]; 0.001 µM,0.0048
same,increase in dead-cell fraction,[16]; 0.003162 µM,0.0087
same,increase in dead-cell fraction,[16]; 0.01 µM,0.0083
same,increase in dead-cell fraction,[16]; 0.03162 µM,0.0248
same,increase in dead-cell fraction,[16]; 0.1 µM,-0.0084
same,increase in dead-cell fraction,[16]; 0.3162 µM,0.383
same,increase in dead-cell fraction,[16]; 1 µM,0.596

# From the supplement of paper PMC9663587
